Measured values published in patent US6417167B1, “Lyophilized compositions containing shingoglycolipid and process for preparing them” (Kirin Beer Kabushiki Kaisha, priority 1997, dated 2002).

Tests used:
Type in all cases: physicochemical
[1] = Examination of optimal formulation: re-solubility after storage; settings: lyophilized, Polysorbate 20 0.5%
Experimental: (§1) First, Polysorbate 20 was dissolved in distilled water in a concentration of 0.5%, and sucrose and histidine or sodium deoxycholate in such concentrations listed on Table 11. Next, 20 mg of the active component (KRN7000) was weighed and stirred in 100 ml of the solvents in a heated bath to 80° C. for 20 minutes in order to form a solution. After cooling with running water, the mixture was filtered through a 0.22 μm filter, and transparent colorless glass vials having a volume of 5 ml were charged with a 1 ml portion of each of a variety of solutions thus obtained and subjected to lyophilization. Lyophilization was carried out under the condition of preliminary freezing at −40° C. for 2 hours and drying at −20° C. for 24 hours, 10° C. for 12 hours, and finally at 25° C. for 5 hours to give the lyophilized product. The degree of vacuum was set at 0.1 Torr or less during drying step.
After the lyophilization step, the lyophilized composition thus obtained was stored at 25° C. or 50° C. After storage at 25° C. for 2 months or at 50° C. for 2 weeks, the lyophilized composition was reconstituted in 1 ml of distilled water for injection, left standing for 30 minutes, and solubility was judged when the foams generated on reconstitution disappeared. The samples judged to be solution after storage at 25° C. for 2 months were further stored, and judged again of their solubility after storage for 4 months.
(§2) The solubility was judged by cleaning the outside of the vial and placing it beneath the white light source in a darkroom for observation with naked eye at the position of a luminous intensity of about 5,000 lux. When the sample was clear with no precipitates, it was judged that the active component was dissolved.

[2] = Excipient appropriate to lyophilization 2: re-solubility after storage; settings: lyophilized, Polysorbate 20 0.5%, 25° C.
Experimental: The lyophilized preparations having mannitol and sucrose added thereto were observed on their variation with the passage of time.
as §1, with “and the saccharides were dissolved” for “and sucrose and histidine or sodium deoxycholate”, “concentrations as” for “concentrations”, “listed in” for “listed on”, “Table 7.” for “Table 11.”
After the lyophilization step, the lyophilized composition was stored at 25° C. After storage for 1 month, the lyophilized composition was reconstituted in 1 ml of distilled water for injection, left standing for 30 minutes, and solubility was judged when the foams generated on reconstitution disappeared. The samples judged in solution were further stored, and judged again of their solubility after 4 months.
as §2

[3] = Cooling condition after dissolution with heating 1: turbidity (absorbance 660 nm, kaolin standard); settings: Polysorbate 20 0.5%, histidine 0.75%, sucrose 5.6%; cooling 73° C. → 30° C., 23 minutes; reconstituted in 1 ml distilled water
Experimental: First, Polysorbate 20 was dissolved in distilled water in a concentration of 0.5%, histidine in a concentration of 0.75%, and sucrose in a concentration of 5.6%. Next, 800 mg of the active component (KRN7000) was weighed and stirred in 4 liters of the solvent under heating at 73° C. for 30 minutes in order to form a solution. After dissolution, the mixture was divided into about 500 ml portions, cooled with stirring from 73° C. to 30° C. (6 minutes), from 73° C. to 30° C. (23 minutes), and from 73° C. to 30° C. (120 minutes). […]
The turbidity of the solutions prepared respective cooling conditions before or after the filtration step, and the lyophilized composition thus obtained which were reconstituted after leaving standing at room temperature (25° C. ) for 3 hours from the lyophilization step, were measured. In this connection, the lyophilized composition was reconstituted in 1 ml of distilled water for injection, left standing for 30 minutes, and turbidity was measured when the foams generated on reconstitution disappeared.
The turbidity was measured by the following method: various dilutions including 50-fold dilution (kaolin 2 μg/ml, turbidity 2.00), 100-fold dilution (kaolin 1 μg/ml, turbidity 1.00), and 200-fold dilution (kaolin 0.5 μg/ml, turbidity 0.50) were prepared by diluting the turbidity standard (kaolin, 0.1 mg/ml) with distilled water. […]

Re-solubility after storage (by naked eye) ([1]; Sucrose 1.1%, Histidine, 4%, 50° C., 2 weeks): + (not dissolved (or deposited))
Re-solubility after storage (by naked eye) ([1]; Sucrose 3.1%, Histidine, 3%, 50° C., 2 weeks): − (dissolved)
Re-solubility after storage (by naked eye) ([1]; Sucrose 3.2%, Histidine, 2%, 50° C., 2 weeks): − (dissolved)
Re-solubility after storage (by naked eye) ([1]; Sucrose 4.8%, Sodium deoxycholate, 0.2%, 25° C., 2 months): + (not dissolved (or deposited))
Re-solubility after storage (by naked eye) ([1]; Sucrose 4.8%, Sodium deoxycholate, 0.5%, 25° C., 2 months): − (dissolved)
Re-solubility after storage (by naked eye) ([1]; Sucrose 4.8%, Sodium deoxycholate, 0.5%, 25° C., 4 months): − (dissolved)
Re-solubility after storage (by naked eye) ([1]; Sucrose 4.8%, Sodium deoxycholate, 1%, 25° C., 2 months): − (dissolved)
Re-solubility after storage (by naked eye) ([1]; Sucrose 4.8%, Sodium deoxycholate, 1%, 25° C., 4 months): − (dissolved)
Re-solubility after storage (by naked eye) ([1]; Sucrose 4.8%, Sodium deoxycholate, 2%, 25° C., 2 months): − (dissolved)
Re-solubility after storage (by naked eye) ([1]; Sucrose 4.8%, Sodium deoxycholate, 2%, 25° C., 4 months): − (dissolved)
Re-solubility after storage (by naked eye) ([1]; Sucrose 5.0%, Histidine, 2%, 50° C., 2 weeks): − (dissolved)
Re-solubility after storage (by naked eye) ([1]; Sucrose 5.1%, Histidine, 1%, 50° C., 2 weeks): − (dissolved)
Re-solubility after storage (by naked eye) ([1]; Sucrose 6.9%, Histidine, 1%, 50° C., 2 weeks): − (dissolved)
Re-solubility after storage (by naked eye) ([1]; Sucrose 7.9%, Histidine, 0.5%, 50° C., 2 weeks): + (not dissolved (or deposited))
Re-solubility after storage (by naked eye) ([1]; Sucrose 9.6%, Histidine, 2%, 50° C., 2 weeks): − (dissolved)
Re-solubility after storage (by naked eye) ([1]; Sucrose 9.6%, Sodium deoxycholate, 0.2%, 25° C., 2 months): + (not dissolved (or deposited))
Re-solubility after storage (by naked eye) ([1]; Sucrose 9.6%, Sodium deoxycholate, 0.5%, 25° C., 2 months): − (dissolved)
Re-solubility after storage (by naked eye) ([1]; Sucrose 9.6%, Sodium deoxycholate, 0.5%, 25° C., 4 months): − (dissolved)
Re-solubility after storage (by naked eye) ([1]; Sucrose 9.6%, Sodium deoxycholate, 1%, 25° C., 2 months): − (dissolved)
Re-solubility after storage (by naked eye) ([1]; Sucrose 9.6%, Sodium deoxycholate, 1%, 25° C., 4 months): − (dissolved)
Re-solubility after storage (by naked eye) ([1]; Sucrose 9.6%, Sodium deoxycholate, 2%, 25° C., 2 months): − (dissolved)
Re-solubility after storage (by naked eye) ([1]; Sucrose 9.6%, Sodium deoxycholate, 2%, 25° C., 4 months): − (dissolved)
Re-solubility after storage (by naked eye) ([1]; Sucrose 19.2%, Sodium deoxycholate, 0.1%, 25° C., 2 months): + (not dissolved (or deposited))
Re-solubility after storage (by naked eye) ([1]; Sucrose 19.2%, Sodium deoxycholate, 0.2%, 25° C., 2 months): + (not dissolved (or deposited))
Re-solubility after storage (by naked eye) ([1]; Sucrose 19.2%, Sodium deoxycholate, 0.5%, 25° C., 2 months): + (not dissolved (or deposited))
Re-solubility after storage (by naked eye) ([1]; Sucrose 19.2%, Sodium deoxycholate, 1%, 25° C., 2 months): + (not dissolved (or deposited))
Re-solubility after storage (by naked eye) ([1]; Sucrose 19.2%, Sodium deoxycholate, 2%, 25° C., 2 months): + (not dissolved (or deposited))
Re-solubility after storage (by naked eye) ([2]; Mannitol 10%, 1 month): − (dissolved)
Re-solubility after storage (by naked eye) ([2]; Mannitol 10%, 4 months): + (not dissolved (or deposited))
Re-solubility after storage (by naked eye) ([2]; Sucrose 9.6%, 1 month): − (dissolved)
Re-solubility after storage (by naked eye) ([2]; Sucrose 9.6%, 4 months): + (not dissolved (or deposited))
Turbidity Lyophilized composition [3]: 0.36
Compound: CCCCCCCCCCCCCCCCCCCCCCCCCC(=O)N[C@@H](CO[C@H]1O[C@H](CO)[C@H](O)[C@H](O)[C@H]1O)[C@H](O)[C@H](O)CCCCCCCCCCCCCC [KRN7000, (2S,3S,4R)-1-(α-D-galactopyranosyloxy)-2-hexacosanoylamino-3,4-octadecanediol]
